Experiment [1] has as its system td intron (group I intron of the thymidylate synthase gene of phage T4, truncated version). In kind it is biochemical. The note with it: for IC50: read-out: concentration giving approximately 50% inhibition of the second splice step of the td intron; for ability to inhibit the group I intron splice reaction: antibiotics known to interact with 23S rRNA; for inhibition of group I splicing: at millimolar concentrations. Here is the method: In vitro-transcribed and gel-purified^8 preRNA from a truncated version of the td intron^21 was incubated in a splicing buffer (50 mM Tris-HCl, pH 7.5, 5 mM MgCl2, 0.4 mM spermidine) for 10 min at 37° C. with GTP and gentamicin as indicated. Samples were separated on 5% acrylamide/7 M urea gels. RNA species are as follows: In-E2, intron-exon 2; L-ln, linear intron; E1-E2, ligated exons; E1, exon 1.
FIGS. 3a-c, Splicing experiments were done with the td intron as described in FIG. 2a, using several members of each family of aminoglycoside antibiotics (gentamicin, kanamycin and neomycin). Structures of the antibiotics can be found in Davies and Yagisaura in Biochemistry and Genetic Function Of Commercially Important Antibiotics, p. 329-354, Addison-Wesley, London, (1983) "Conc" is the antibiotic concentration at which about 50% inhibition was observed.
To monitor the splice process in vitro precursor RNA containing exon1, intron and exon2 was synthesized by in vitro transcription using bacteriophage RNA polymerase. During transcription, a radioactive labeled nucleotide was present in the nucleotide mixture and was incorporated in the RNA. This radioactive labeled RNA was then subjected to splicing conditions and after reaction the RNA splice products were separated from each other by electrophoresis on a denaturing acrylamide gel. The gel was dried and exposed for autoradiography.
Unspliced precursor RNA from the thymidylate synthase gene of the phage T4, which had been transcribed in vitro, and purified as previously described, (Schroeder, R., von Ahsen, U. & Belfort, M. Biochemistry 30, 3295-3303 (1991)) was incubated with increasing amounts of gentamicin under normal splicing conditions.
(§1) Materials and Methods: In vitro splicing experiments were performed with a truncated version of the td gene, containing 79 nt of exon I, 265 nt of intron sequences containing only the catalytic core (delta P6-2) and 21 nt of exon H (Schroeder, von Ahsen, & Belfort, 199 1, Biochemistry 30, 3295). The plasmids containing the Tetrahymena rRNA intron and the yeast mitochondrial cob intron I (the group II intron) were pBGST7 (Been & Cech, 1986, Cell 47, 207) and pBSbIl (Schmelzer and Schweyen, 1986, Cell 46, 557), respectively. The sunY intron is described in Michel et al. (1990, Genes & Development 4, 777). DNA was prepared by the alkaline-lysis procedure and linearized with appropriate restriction enzymes. Transcription was performed in a total volume of 20 μl at 30° C. for one (1) hour in buffer containing 40 mM Tris-HCl pH 7.5, 3 mM MgCl2, 0.4 mM spermidine, 1 mM of each NTP, 5 mM […], 10 units T7 RNA polymerase (Boehringer Mannheim), 10 μCi alpha-^35 S-CTP and 10 units RNAse inhibitor (Boehringer Mannheim). The reaction mixture was loaded on a 5% polyacrylamide/7 M urea gel. Precursor RNA was cut out of the gel and soaked in 400 μl elution buffer (10 mM Tris-HCl pH 7.5, 10 mM EDTA, 3.5 M NH4 OAc, 0.1% SDS) for two hours. After ethanol precipitation, the RNA was dissolved in H2 O-- before splicing experiments were performed the RNA was incubated in splicing buffer (40 mM Tris-HCl pH 7.5, 8 mM MgCl2, 0.4 mM spermidine) for 2 min at 56° C. For splicing of the suny intron and the Tetrahymena intron 50 mM NH4 Cl or 200 mM NaCl were added, respectively. Splicing was initiated by addition of guanosine at the appropriate concentration at 37° C. When splicing was to be inhibited by antibiotic, the antibiotic was added immediately before the guanosine. Splicing reactions were performed at 37° C. for 10'.

For experiment [2], the system named is sunY intron (shortened version, construct SYC1.3). Put plainly: In vitro splicing inhibition of the sunY group I intron (GTP incorporation assay). Type of experiment: biochemical, T4-phage. Here is the method: as §1, with “DNA” for “Materials and Methods: In vitro splicing experiments were performed with a truncated version of the td gene, containing 79 nt of exon I, 265 nt of intron sequences containing only the catalytic core (delta P6-2) and 21 nt of exon H (Schroeder, von Ahsen, & Belfort, 199 1, Biochemistry 30, 3295). The plasmids containing the Tetrahymena rRNA intron and the yeast mitochondrial cob intron I (the group II intron) were pBGST7 (Been & Cech, 1986, Cell 47, 207) and pBSbIl (Schmelzer and Schweyen, 1986, Cell 46, 557), respectively. The sunY intron is described in Michel et al. (1990, Genes & Development 4, 777). DNA”, “10'. […] Samples were separated on 5% acrylamide/7 M urea gels.” for “10'.”

Setting [3] is: in vitro splicing, 37° C., 10 min.

Read-outs that look alike come from different tables or passages of the source.

With 2"-phospho-Gentamicin C, the IC50 in experiment [1] (setting [3]) was around 100 µM.

On to `CN[C@@H]1[C@@H](O)[C@@H](O[C@@H]2[C@@H](O)[C@H](O[C@H]3OC(CN)=CC[C@H]3N)[C@@H](N)C[C@H]2NC(C)=O)OC[C@]1(C)O` [1-N-acetyl-Sisomicin], for which, in experiment [1] (setting [3]), the IC50 is around 100 µM.

Take `CN[C@@H]1[C@@H](O)[C@@H](O[C@@H]2[C@H](O)[C@H](O[C@H]3OC(CN)=CC[C@H]3N)[C@@H](N)C[C@H]2N)OC[C@]1(C)O` [5-epi-Sisomicin]: in experiment [1] (setting [3]), the IC50 was around 0.5 µM.

As for `CN[C@@H]1[C@@H](O[C@H]2O[C@H](CO)[C@@H](N)[C@H](O)[C@H]2O)OC2C[C@@H](N)[C@@H](O[C@H]3[C@H](O)[C@@H](O)[C@H](N)C[C@@H]3N)OC2[C@@H]1O` (some centres unmarked) [Apramycin], in experiment [1] (setting [3]), the IC50 is around 200 µM.

As for `CNC1C(O)C(OC2C(N)CC(N)C(OC3OC(CN)CCC3N)C2O)OCC1(C)O` (centres unmarked) [Dihydrosisomicin], the IC50 in experiment [1] (setting [3]) was around 100 µM.

`CN[C@@H]1[C@@H](O)[C@@H](O[C@@H]2[C@@H](O)[C@H](O)[C@@H](N)C[C@H]2N)OC[C@]1(C)O` [Garamine]: the IC50 in experiment [1] (setting [3]) is around 200 µM.

As for `CN[C@@H]1[C@@H](O)[C@@H](O[C@@H]2[C@@H](O)[C@H](O[C@H]3O[C@H](CN)[C@@H](O)[C@H](O)[C@H]3O)[C@@H](N)C[C@H]2N)OC[C@]1(C)O` [Gentamicin B], the IC50 in experiment [1] (setting [3]) is around 10 µM.

On to `NC[C@H]1O[C@H](O[C@H]2[C@H](O)[C@@H](O[C@H]3O[C@H](CO)[C@@H](O)[C@H](N)[C@H]3O)[C@H](N)C[C@@H]2N)[C@H](N)[C@@H](O)[C@@H]1O` [Kanamycin B], for which the IC50 in experiment [1] (setting [3]) is around 10 µM.

`NC[C@@H]1O[C@H](O[C@H]2[C@@H](O)[C@H](O[C@@H]3[C@@H](O)[C@H](N)C[C@H](N)[C@H]3O[C@H]3O[C@H](CO)[C@@H](O)C[C@H]3N)O[C@@H]2CO)[C@H](N)[C@@H](O)[C@@H]1O[C@H]1O[C@H](CO)[C@@H](O)[C@H](O)[C@@H]1O` [Lividomycin]: the IC50 in experiment [1] (setting [3]) was around 500 µM.

As for `NC[C@H]1O[C@H](O[C@H]2[C@H](O)[C@@H](O)[C@H](N)C[C@@H]2N)[C@H](N)[C@@H](O)[C@@H]1O` [Neamine], the IC50 in experiment [1] (setting [3]) is around 200 µM.

Turning to `NC[C@@H]1O[C@H](O[C@H]2[C@@H](O)[C@H](O[C@@H]3[C@@H](O)[C@H](N)C[C@H](N)[C@H]3O[C@H]3O[C@H](CN)[C@@H](O)[C@H](O)[C@H]3N)O[C@@H]2CO)[C@H](N)[C@@H](O)[C@@H]1O` [Neomycin B], the “lowest concentration with splicing inhibition activity” value in experiment [1] (activity at a concentration as low as) came to 0.5 µM. In addition, the “antibiotic concentration affecting the first step of splicing” value in experiment [1] (first step affected only at this concentration) stood at 100 µM. Also, the IC50 in experiment [1] (setting [3]) is around 0.5 µM. Besides, the “concentration to which the sunY intron is sensitive” value in experiment [2] was determined as 10 AM.

For `NC[C@@H]1O[C@H](O[C@H]2[C@@H](O)[C@H](O[C@@H]3[C@@H](O)[C@H](N)C[C@H](N)[C@H]3O[C@H]3O[C@H](CO)[C@@H](O)[C@H](O)[C@H]3N)O[C@@H]2CO)[C@H](N)[C@@H](O)[C@@H]1O` [Paromomycin], the IC50 in experiment [1] (setting [3]) was around 100 µM.

In the case of `CN[C@@H]1[C@@H](O)[C@@H](O[C@@H]2[C@@H](O)[C@H](O[C@H]3OC(CN)=CC[C@H]3N)[C@@H](N)C[C@H]2N)OC[C@]1(C)O` [Sisomicin], the IC50 in experiment [1] (setting [3]) was around 50 µM.

Consider `O=C(N[C@H](CO)[C@H](O)c1ccc([N+](=O)[O-])cc1)C(Cl)Cl` [chloramphenicol], for which, in experiment [1], the “ability to inhibit the group I intron splice reaction” value is given as “not able to inhibit” and the “inhibition of group I splicing” value was “inactive”.

Regarding `CC[C@H]1OC(=O)[C@H](C)[C@@H](O[C@H]2C[C@@](C)(OC)[C@@H](O)[C@H](C)O2)[C@H](C)[C@@H](O[C@@H]2O[C@H](C)C[C@H](N(C)C)[C@H]2O)[C@](C)(O)C[C@@H](C)C(=O)[C@H](C)[C@@H](O)[C@]1(C)O` [erythromycin], in experiment [1], the “ability to inhibit the group I intron splice reaction” value was “not able to inhibit” and the “inhibition of group I splicing” value is “inactive”.

For `CN[C@H]1C[C@@H](N)[C@H](O)[C@@H](O[C@@H]2O[C@H](CO)[C@H](O)[C@@H]3OC4(O[C@H]23)O[C@H]([C@@H](N)CO)[C@H](O)[C@H](O)[C@H]4O)[C@@H]1O` (some centres unmarked) [hygromycin B], the “inhibition of group I splicing” value in experiment [1] was “inactive”.

For `C[C@H]1O[C@H](O[C@H]2[C@H](O)[C@@H](O)[C@@H](O)[C@H](O)[C@@H]2O)[C@@H](N)C[C@@H]1NC(=N)C(=O)O` [kasugamycin], the “inhibition of group I splicing” value in experiment [1] was “inactive”.

For `CN[C@@H]1[C@H](O)[C@H](NC)[C@H]2O[C@@]3(O)C(=O)C[C@@H](C)O[C@H]3O[C@@H]2[C@H]1O` [spectinomycin], the “inhibition of group I splicing” value in experiment [1] was “inactive”.

For the compound `C=C[C@]1(C)C[C@@H](OC(=O)CSCCN(CC)CC)[C@]2(C)[C@H](C)CC[C@]3(CCC(=O)[C@H]32)[C@@H](C)[C@@H]1O` [tiamulin], the “ability to inhibit the group I intron splice reaction” value in experiment [1] was “not able to inhibit”.

For Gentamicin C, the IC50 in experiment [1] was around 1 µM.

On to noursethricin, for which, in experiment [1], the “ability to inhibit the group I intron splice reaction” value was “not able to inhibit”.

For the origin of these results see patent US5900406A, “Use of antibiotics of the type 2-deoxystreptamine substituted with aminosugars to inhibit growth of microorganisms containing group I introns” (NZYM, Inc., priority 1991, dated 1999).
